The text below walks through data of patent US11065253B2, “Arylquinazolines” (Merck Patent GmbH, priority 2013, dated 2021).

The first experiment deals with phospho-serine 2056 DNA-PK in HCT116 cells. Kind of experiment: DNA-PK phosphorylation at serine 2056 (cellular), ELISA in bleomycin-treated HCT116 cells. The conditions noted are these: Homo sapiens, HCT-116, 6 h, cellular; HCT116 cells, 10 μM bleomycin, six hours; read-out: IC50 pDNA-PK. The class given is cell-based. A digest of the protocol: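 After overnight seeding, HCT116 cells received compound with 10 μM bleomycin for 6 h; phospho-DNA-PK ELISA signals were scaled to total DNA-PKcs, DMSO serving as blank.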
As for `COc1cc(C(O)c2ccc(F)c(-c3ncnc4cc(N5CCOCC5)ccc34)c2)c(Cl)nn1` (centres unmarked) [Example 7, (3-Chloro-6-methoxy-pyridazin-4-yl)-[4-fluoro-3-(7-morpholin-4-yl-quinazolin-4-yl)phenyl]-methanol], the IC50 – broadly, the midpoint of a concentration-inhibition curve – is less than 0.5 µM.

In the case of `O[C@H](c1ccc(F)c(-c2ncnc3cc(N4CCOCC4)ccc23)c1)c1nccnc1Cl` [Example 27, (R)-(3-Chloro-pyrazin-2-yl)-[4-fluoro-3-(7-morpholin-4-yl-quinazolin-4-yl)phenyl]-methanol], the 50% inhibitory concentration (IC50) was less than 0.5 µM.

With `Cn1nccc1C(O)c1ccc(F)c(-c2nc(Cl)nc3cc(N4CCOCC4)ccc23)c1` (centres unmarked) [Example 214, [3-(2-Chloro-7-morpholin-4-yl-quinazolin-4-yl)-4-fluoro-phenyl]-(2-methyl-2H-pyrazol-3-yl)-methanol], the IC50 was 10 to 30 µM.

As for `CC(C)(C)Oc1nccnc1C(O)c1ccc(F)c(-c2ncnc3cc(N4CCOCC4)ccc23)c1` (centres unmarked) [Example 13, (3-tert-Butoxy-pyrazin-2-yl)-[4-fluoro-3-(7-morpholin-4-yl-quinazolin-4-yl)phenyl]-methanol], the IC50 fell in the range of 10 to 30 µM.

Turning to `CCn1nc(C(O)c2cc(-c3ncnc4cc(N5CCOCC5)ccc34)c(F)cc2Cl)ccc1=O` (centres unmarked) [Example 93, 6-{[2-Chloro-4-fluoro-5-(7-morpholin-4-yl-quinazolin-4-yl)phenyl]-hydroxymethyl}-2-ethyl-2H-pyridazin-3-one], the IC50 was less than 0.5 µM.

As for `OC(c1cc(-c2ncnc3cc(N4CCOCC4)ccc23)c(F)cc1F)c1ncnc2sccc12` (centres unmarked) [Example 90, [2,4-Difluoro-5-(7-morpholin-4-yl-quinazolin-4-yl)-phenyl]thieno[2,3-d}-pyrimidin-4-ylmethanol], the IC50 was less than 0.5 µM.

Regarding `OC(c1ccc(Cl)nn1)c1cc(-c2ncnc3cc(N4CCOCC4)ccc23)c(F)cc1F` (centres unmarked) [Example 49, (6-Chloro-pyridazin-3-yl)-[2,4-difluoro-5-(7-morpholin-4-yl-quinazolin-4-yl)phenyl]-methanol], the 50% inhibitory concentration (IC50) is 0.5 to 5 µM.

The experiment is the same for the next values; noted with them: Homo sapiens, HCT-116, cellular DNA-PK phosphorylation at serine 2056, HCT116 cells; read-out: IC50 pDNA-PK.
As for `CN1CCN(c2nccnc2C(O)c2ccc(F)c(-c3ncnc4cc(N5CCOCC5)ccc34)c2)C1=O` (centres unmarked) [Example 424, 1-(3-{[4-Fluoro-3-(7-morpholin-4-yl-quinazolin-4-yl)-phenyl]hydroxy-methyl}pyrazin-2-yl)-3-methyl-imidazolidin-2-one], the IC50 fell in the range of 10 to 30 µM.

Consider `Cc1cncnc1C(O)c1cc(-c2ncnc3cc(N4CCOCC4)ccc23)ccc1Cl` (centres unmarked) [Example 417, [2-Chloro-5-(7-morpholin-4-yl-quinazolin-4-yl)-phenyl]-(5-methyl-pyrimidin-4-yl)-methanol (Ena 2)], for which the IC50 was 0.5 to 5 µM.

Regarding `OC(c1cc(-c2ncnc3cc(N4CCOCC4)ccc23)c(F)cc1F)c1nnc2ccccn12` (centres unmarked) [Example 379, [2,4-Difluoro-5-(7-morpholin-4-yl-quinazolin-4-yl)-phenyl]-[1,2,4]-triazolo[4,3-a]pyridin-3-ylmethanol], the 50% inhibitory concentration (IC50) was in the range of 0.5 to 5 µM.

As to `OC(c1ccc(F)c(-c2ncnc3cc(N4CCOCC4)ccc23)c1)c1ncnc2ccsc12` (centres unmarked) [Example 438, [4-Fluoro-3-(7-morpholin-4-yl-quinazolin-4-yl)-phenyl]thieno[3,2-d}-pyrimidin-4-yl-methanol], the IC50 was less than 0.5 µM.

With `Cn1ncc2c(C(O)c3cc(-c4ncnc5cc(N6CCOCC6)ccc45)ccc3F)ncnc21` (centres unmarked) [Example 391, [2-Fluoro-5-(7-morpholin-4-yl-quinazolin-4-yl)-phenyl]-(1-methyl-1H-pyrazolo[3,4-d}-pyrimidin-4-yl)-methanol], the IC50 was 0.5 to 5 µM.

`COc1cnc(C(O)c2ccc(F)c(-c3ncnc4cc(N5CCOCC5)ccc34)c2)c(Br)c1` (centres unmarked) [Example 473, (3-bromo-5-methoxy-pyridin-2-yl)-[4-fluoro-3-(7-morpholin-4-yl-quinazolin-4-yl)-phenyl]methanol]: the IC50 is less than 0.5 µM.

The same experiment, now with this note: Homo sapiens, HCT-116, phospho-serine 2056 DNA-PK, bleomycin-treated HCT116 cells; class symbols A-D; read-out: IC50 pDNA-PK.
Turning to `CC(C)n1cc(C(O)c2ccc(F)c(-c3ncnc4cc(N5CCOCC5)ccc34)c2)cn1` (centres unmarked) [Example 197, [4-Fluoro-3-(7-morpholin-4-yl-quinazolin-4-yl)-phenyl]-(1-isopropyl-1 H-pyrazol-4-yl)-methanol], the concentration for half-maximal inhibition (IC50) was in the range of 5 to 10 µM.

As to `Cc1nc(C(O)c2cnc(F)c(-c3ncnc4cc(N5CCOCC5)ncc34)c2)sc1C` (centres unmarked) [Example 196, (4,5-Dimethyl-thiazol-2-yl)-[6-fluoro-5-(7-morpholin-4-yl-pyrido[4,3-d}-pyrimidin-4-yl)-pyridin-3-yl]-methanol], the half-maximal inhibitory concentration (IC50) is 10 to 30 µM.

For the compound `Cn1nc(C(O)c2ccc(F)c(-c3ncnc4cc(N5CCOCC5)ccc34)c2F)ccc1=O` (centres unmarked) [Example 220, 6-{[2,4-Difluoro-3-(7-morpholin-4-yl-quinazolin-4-yl)-phenyl]hydroxy-methyl}-2-methyl-2H-pyridazin-3-one], the IC50 was in the range of 5 to 10 µM.

With `COc1ccc([C@@H](O)c2cc(-c3ncnc4cc(N5CCOCC5)ccc34)c(F)cc2Cl)nn1` [Example 136, (S)-[2-Chloro-4-fluoro-5-(7-morpholin-4-yl-quinazolin-4-yl)-phenyl]-(6-methoxy-pyridazin-3-yl)-methanol], the IC50 is less than 0.5 µM.

As for `CCOc1ccc(C(O)c2ccc(F)c(-c3ncnc4cc(N5CCOCC5)ccc34)c2)nn1` (centres unmarked) [Example 134, (6-Ethoxy-pyridazin-3-yl)-[4-fluoro-3-(7-morpholin-4-yl-quinazolin-4-yl)-phenyl] methanol], the IC50 fell in the range of 0.5 to 5 µM.

The experiment is the same for the next values; noted with them: Homo sapiens, HCT-116, phospho-serine 2056 DNA-PK, bleomycin-treated HCT116 cells; read-out: IC50 pDNA-PK.
With `NC(=O)C(c1ccc(F)c(-c2ncnc3cc(N4CCOCC4)ccc23)c1)c1cncc(F)c1Cl` (centres unmarked) [Example 322, 2-(4-Chloro-5-fluoro-pyridin-3-yl)-2-[4-fluoro-3-(7-morpholin-4-yl-quinazolin-4-yl)-phenyl]acetamide], the IC50 was 0.5 to 5 µM.

Turning to `[2H]C1([2H])OC([2H])([2H])C([2H])([2H])N(c2ccc3c(-c4cc(C(O)c5nccnc5C)ccc4F)ncnc3c2)C1([2H])[2H]` (centres unmarked) [Example 238, [4-Fluoro-3-[7-(2,2,3,3,5,5,6,6-octadeuterio-morpholin-4-yl)quinazolin-4-yl]phenyl]-(3-methyl-pyrazin-2-yl)-methanol], the concentration for half-maximal inhibition (IC50) was less than 0.5 µM.

For the compound `OC(c1ccc(F)c(-c2ncnc3cc(N4CCOCC4)ccc23)c1)c1nccn2cnnc12` (centres unmarked) [Example 351, [4-Fluoro-3-(7-morpholin-4-yl-quinazolin-4-yl)-phenyl]-[1,2,4]-triazolo[4,3-a]-pyrazin-8-ylmethanol], the IC50 fell in the range of 10 to 30 µM.

As to `OC(c1cc(-c2ncnc3cc(N4CCOCC4)ccc23)c(F)cc1F)c1nncc2sccc12` (centres unmarked) [Example 341, [2,4-Difluoro-5-(7-morpholin-4-yl-quinazolin-4-yl)-phenyl]thieno[2,3-d}-pyridazin-4-yl-methanol], the concentration for half-maximal inhibition (IC50) is less than 0.5 µM.

Consider `Cc1nccnc1C(O)c1cc(-c2ncnc3cc(N4CCOCC4)cnc23)c(F)cc1Cl` (centres unmarked) [Example 240, [2-Chloro-4-fluoro-5-(7-morpholin-4-yl-pyrido[3,2-d}-pyrimidin-4-yl)-phenyl]-(3-methyl-pyrazin-2-yl)-methanol], for which the half-maximal inhibitory concentration (IC50) was in the range of 0.5 to 5 µM.

For `NC(=O)C(c1cccnc1)c1cc(-c2ncnc3cc(N4CCOCC4)ccc23)c(F)cc1F` (centres unmarked) [Example 294, 2-[2,4-Difluoro-5-(7-morpholin-4-yl-quinazolin-4-yl)-phenyl]-2-pyridin-3-ylacetamide], the half-maximal inhibitory concentration (IC50) fell in the range of 10 to 30 µM.

As to `COc1ccc(C(O)c2cc(-c3ncnc4cc(N5CCOCC5)ccc34)ccc2F)nn1` (centres unmarked) [Example 357, [2-Fluoro-5-(7-morpholin-4-yl-quinazolin-4-yl)-phenyl]-(6-methoxy-pyridazin-3-yl)-methanol], the concentration for half-maximal inhibition (IC50) is 0.5 to 5 µM.

Still in this experiment, the particulars now being: cellular DNA-PK phosphorylation at serine 2056, HCT116 cells; read-out: IC50 pDNA-PK.
Consider `COc1nccnc1C(O)c1cc(-c2ncnc3cc(N4CCOCC4)ccc23)c(F)cc1F` (centres unmarked) [Example 454], for which the IC50 is less than 0.5 µM.

As to `Cc1nccnc1C(O)c1cc(-c2ncnc3cc(N4CCOCC4)ccc23)ccc1Cl` (centres unmarked) [Example 428, [2-Chloro-5-(7-morpholin-4-yl-quinazolin-4-yl)-phenyl]-(3-methyl-pyrazin-2-yl)-methanol], the IC50 is less than 0.5 µM.

Turning to `OC(c1cccnn1)c1cc(-c2ncnc3cc(N4CCOCC4)ccc23)ccc1Cl` (centres unmarked) [Example 470, [2-Chloro-5-(7-morpholin-4-yl-quinazolin-4-yl)-phenyl]pyridazin-3-yl-methanol], the IC50 is less than 0.5 µM.

As to `OC(c1cc(-c2ncnc3cc(N4CCOCC4)ccc23)c(F)cc1Cl)c1ncnc2ccoc12` (centres unmarked) [Example 452, [2-Chloro-4-fluoro-5-(7-morpholin-4-yl-quinazolin-4-yl)-phenyl]furo[3,2-d}-pyrimidin-4-yl-methanol], the 50% inhibitory concentration (IC50) was less than 0.5 µM.

The experiment is the same for the next values; noted with them: cellular; HCT116 cells, 10 μM bleomycin, six hours; read-out: IC50 pDNA-PK.
For the compound `Cn1nc(C(O)c2cc(-c3ncnc4cc(N5CCOCC5)ccc34)c(F)cc2Cl)ccc1=O` (centres unmarked) [Example 45, 6-{[2-Chloro-4-fluoro-5-(7-morpholin-4-yl-quinazolin-4-yl)phenyl]-hydroxymethyl}-2-methyl-2H-pyridazin-3-one], the half-maximal inhibitory concentration (IC50) was less than 0.5 µM.

The experiment is the same for the next values; noted with them: phospho-serine 2056 DNA-PK, bleomycin-treated HCT116 cells; class symbols A-D; read-out: IC50 pDNA-PK.
`OC(c1cc(F)c(F)c(-c2ncnc3cc(N4CCOCC4)ccc23)c1)c1nccs1` (centres unmarked) [Example 179, [3,4-Difluoro-5-(7-morpholin-4-yl-quinazolin-4-yl)-phenyl]thiazol-2-yl-methanol]: the half-maximal inhibitory concentration (IC50) fell in the range of 0.5 to 5 µM.

As for `CC(C#N)Oc1ccc(C(O)c2cc(-c3ncnc4cc(N5CCOCC5)ccc34)c(F)cc2Cl)nn1` (single isomer, unassigned) [Example 102, 2-(6-{[2-Chloro-4-fluoro-5-(7-morpholin-4-yl-quinazolin-4-yl)-phenyl]hydroxy-methyl}pyridazin-3-yloxy)propionitrile], the IC50 was less than 0.5 µM.
